In patent US20230048888A1, “USE OF TRIAZOLOTRIAZINE DERIVATIVE IN TREATMENT OF DISEASES” (ZHEJIANG VIMGREEN PHARMACEUTICALS, LTD., priority 2019, published 2023):

Assays:
[1] = system: haloperidol-induced stiffness; experiment: Haloperidol-induced Parkinson's disease stiffness model in CD-1 mice (rearing and bar tests); type: in vivo
Excerpt: Parkinson's disease (PD) is a common class of degenerative disease of the nervous system with the main pathological changes including the loss of substantia nigra dopaminergic neurons and the decrease of dopamine transmitter content, leading to tremor at rest, muscle stiffness, […], postural reflex disorders and other clinical symptoms. Haloperidol, a dopamine D2 receptor blocker, can block the dopamine D2 receptor in the striatum, leading to mouse dystonic postures, namely, stiffness and hypokinesia. This model is a recognized animal model of Parkinson's syndrome. The ameliorative effect of a test substance on the stiffness symptom of Parkinson's disease induced by haloperidol in CD-1 mice was evaluated. 57 SPF-grade male CD-1 mice (4 weeks old at the time of purchase and 8 weeks old at the time of experiment) with the weight of about 40 g were randomly divided into 5 groups, namely, a vehicle group (n=11), a group of 1 mg/kg benzene sulfonate of Compound 40 (n=11), a group of 3 mg/kg benzene sulfonate of Compound 40 (n=12), a group of 10 mg/kg benzene sulfonate of Compound 40 (n=12), and a group of 30 mg/kg benzene sulfonate of Compound 40 (n=11). 1 mg/kg haloperidol was injected subcutaneously at an injection volume of 10 ml/kg. 30 minutes after the injection, Compound 40 at each dose was intragastrically infused at a volume of 10 ml/kg. At the 1st hour and the 4th hour after the administration was completed, the rearing and bar tests were performed respectively, and the number of standings and on-bar time of the mice were counted to evaluate the ameliorative effect of Compound 40 on the stiffness symptom of haloperidol-induced Parkinson's disease in CD-1 mice. […] Firstly, the acetate of Compound 22 at each dose was intragastrically infused at a volume of 10 ml/kg. After 30 min, 1 mg/kg haloperidol was injected subcutaneously at an injection volume of 10 ml/kg. At the 1st hour and the 4th hour after the administration was completed, the rearing and bar tests were performed respectively, and the number of standings and on-bar time of the mice were counted to evaluate the ameliorative effect of the acetates of Compound 22 on the stiffness symptom of haloperidol-induced Parkinson's disease in CD-1 mice. […] Firstly, Compound 27 at each dose was intragastrically infused at a volume of 10 ml/kg. After 30 min, 1 mg/kg haloperidol was injected subcutaneously at an injection volume of 10 ml/kg. At the 1st hour and the 4th hour after the administration was completed, the rearing and bar tests were performed respectively, and the number of standings and on-bar time of the mice were counted to evaluate the ameliorative effect of Compound 27 on the stiffness symptom of haloperidol-induced Parkinson's disease in CD-1 mice. The mice were subcutaneously injected with haloperidol at abdomen at a dose of 1 mg/kg, with the concentration of a working solution of 0.1 mg/ml and an injection volume of 10 ml/kg. At the 1st hour and the 4th hour after drug intervention, the mice were put into a white transparent plastic bucket with a diameter of 20 cm and a height of 21 cm. The mice were allowed to acclimate in the bucket for 5 min before starting video recording. The spontaneous activity behaviors of the mice within 10 minutes were recorded, whereby the number of standings was counted. The more the standings, the more frequent the spontaneous exploration activities of the mice, and the lower the degree of stiffness. At the time points of 1st and 4th hours after the rearing test was completed, bar test was carried out. The mice were placed on a long wooden bar with a diameter of […] and a height of 6 cm. The mice were let to hold the wooden bar with forelimbs, only with the buttocks or hind limbs on the ground. The timing was stopped when the hind limbs left the bench top or the fore limbs left the wooden bar, and the on-bar time of the mice was recorded. Each mouse was tested 3 times, and the maximum on-bar time and the average on-bar time were counted. […]

adenosine receptor A1 = biological target: T1, adenosine receptor A1 (Homo sapiens, UniProt P30542); experiment: cAMP experiment on Gi-coupled adenosine receptor A1 (CHO); type: cell-based; conditions: cAMP accumulation, NECA EC80 + forskolin; read-out: IC50 (nM) CHO cells (ADORA1)
T1 construct: host or cells: CHO
T1 sequence (P30542 1-326): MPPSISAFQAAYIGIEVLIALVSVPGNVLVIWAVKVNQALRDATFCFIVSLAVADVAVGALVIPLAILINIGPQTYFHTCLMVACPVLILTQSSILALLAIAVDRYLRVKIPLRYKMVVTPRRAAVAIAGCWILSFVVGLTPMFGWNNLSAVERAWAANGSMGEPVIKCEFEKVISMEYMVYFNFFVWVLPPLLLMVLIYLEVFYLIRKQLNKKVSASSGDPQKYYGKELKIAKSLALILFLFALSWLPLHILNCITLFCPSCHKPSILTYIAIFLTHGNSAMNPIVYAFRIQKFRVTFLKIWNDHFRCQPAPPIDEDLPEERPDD
Procedure: In this experiment, a CHO cell strain stably expressing the adenosine receptor Al was taken as a study object (PerkinElmer, ES-010-C) for the experiment. […] A solution system for cell inoculation was 10 μL of cAMP experimental buffer. […] Likewise, 10 mM test compound was also subjected to 3-fold gradient dilution in 100% DMSO. 1 mM forskolin (Sigma, F3917) was prepared with 100% DMSO. The gradient-diluted reference compound and test compound and the 1 mM forskolin were added to a 384-well compound plate (Labcyte, PP-0200). 10 nL of the 1 mM forskolin per well and 10 nL of the gradient-diluted reference agonist NECA per well were transferred to a test plate containing cells by using Echo (Labcyte, 550), and the test plate was incubated for 30 minutes at 37° C. 5 μL of Eu-cAMP tracer working solution and 5 μL of ULight-anti-cAMP working solution (PerkinElmer, TRF0263) were added to the test plate per well, and the test plate was incubated for 30 minutes at 25° C. […] 1000×EC80 NECA was prepared with 100% DMSO. 10 nL of the reference inhibitor DPCPX gradient-diluted per well and 10 nL of the test compound gradient-diluted per well per well were transferred to a test plate containing the cells, and the test plate was incubated for 20 minutes at 25° C. 10 nL of 1000×EC80 NECA per well and 10 nL of 1 mM forskolin per well were transferred to the test plate The test plate was incubated for 30 minutes at 37° C. 5 μL of Eu-cAMP tracer working solution and 5 μL of ULight-anti-cAMP working solution were added to the test plate per well, and the test plate was incubated for 30 minutes at 25° C. The fluorescence signal ratio of each well in the test plate was read, and the IC50 value of the compound was calculated by using the output data of the reference inhibitor and test compound and the concentration of the compound.

[2] = Experiment II, 3 mg/kg intragastric, 1 h
[3] = Experiment II, 3 mg/kg intragastric, 4 h
[4] = Experiment II, 10 mg/kg intragastric, 1 h
[5] = Experiment II, 10 mg/kg intragastric, 4 h
[6] = Experiment II, 30 mg/kg intragastric, 1 h
[7] = Experiment II, 30 mg/kg intragastric, 4 h
[8] = Experiment III, 3 mg/kg intragastric, 1 h
[9] = Experiment III, 3 mg/kg intragastric, 4 h
[10] = Experiment III, 10 mg/kg intragastric, 1 h
[11] = Experiment III, 10 mg/kg intragastric, 4 h
[12] = Experiment III, 30 mg/kg intragastric, 1 h
[13] = Experiment III, 30 mg/kg intragastric, 4 h

SMILES | IC50 (adenosine receptor A1) [nM] | Average on-bar time [1, 4] [s] | Maximum on-bar time [1, 4] [s] | Average on-bar time [1, 5] [s] | Maximum on-bar time [1, 5] [s] | Average on-bar time [1, 10] [s] | Maximum on-bar time [1, 10] [s] | Average on-bar time [1, 11] [s] | Maximum on-bar time [1, 11] [s] | other results
CC(=O)O.Nc1nc(NCCc2ccc(NC3COC3)cc2)nc2nc(-c3ccco3)nn12 [Acetate of Compound 22, 2-(furan-2-yl)-N5-(4-(oxetane-3-ylamino)phenethyl)-[1,2,4]triazolo[1,5-a][1,3,5]triazine-5,7-diamine acetate] |  | 41.88 ± 10.56 | 77.13 ± 25.78 | 33.17 ± 6.69 | 50.50 ± 12.24 |  |  |  |  | Average on-bar time [1, 2]: 109.38 ± 13.74 s; Maximum on-bar time [1, 2]: 157.50 ± 18.11 s; Average on-bar time [1, 3]: 109.33 ± 26.37 s; Maximum on-bar time [1, 3]: 172.25 ± 58.28 s; Average on-bar time [1, 6]: 26.17 ± 3.88 s; Maximum on-bar time [1, 6]: 42.25 ± 8.18 s; Average on-bar time [1, 7]: 24.13 ± 4.28 s; Maximum on-bar time [1, 7]: 32.88 ± 6.21 s
Nc1nc(NCCc2ccc(NC3COC3)cc2)nc2nc(-c3ccco3)nn12 [Compound 22, 2-(furan-2-yl)-N5-(4-(oxetan-3-ylamino)phenethyl)-[1,2,4]triazolo[1,5-a][1,3,5]triazine-5,7-diamine] | 928 |  |  |  |  |  |  |  |  | 
COCCNc1ccc(CCNc2nc(N)n3nc(-c4ccco4)nc3n2)cc1 [Compound 27, 2-(furan-2-yl)-N5-(4-((2-methoxyethyl)amino)phenethyl)-[1,2,4]triazolo[1,5-a][1,3,5]triazine-5,7-diamine] | 679 |  |  |  |  | 34.83 ± 8.63 | 61.38 ± 15.59 | 39.13 ± 14.33 | 55.13 ± 18.32 | Average on-bar time [1, 8]: 56.83 ± 11.67 s; Maximum on-bar time [1, 8]: 88.00 ± 22.07 s; Average on-bar time [1, 9]: 75.11 ± 19.52 s; Maximum on-bar time [1, 9]: 109.33 ± 28.68 s; Average on-bar time [1, 12]: 22.04 ± 4.19 s; Maximum on-bar time [1, 12]: 35.00 ± 8.59 s; Average on-bar time [1, 13]: 23.00 ± 4.46 s; Maximum on-bar time [1, 13]: 31.88 ± 5.75 s

Continued, in another order:

IC50 (adenosine receptor A1) [nM] | SMILES | Average on-bar time [1, 4] [s] | Maximum on-bar time [1, 4] [s] | Average on-bar time [1, 5] [s] | Maximum on-bar time [1, 5] [s] | Average on-bar time [1, 10] [s] | Maximum on-bar time [1, 10] [s] | Average on-bar time [1, 11] [s] | Maximum on-bar time [1, 11] [s] | other results
388 | Cn1nnc(-c2ccc(CCNc3nc(N)n4nc(-c5ccco5)nc4n3)cc2)n1 [Compound 40, N5-(4-(2-methyl-2H-tetrazol-5-yl)phenethyl)-2-(furan-2-yl)-[1,2,4]triazolo[1,5-a][1,3,5]triazine-5,7-diamine] |  |  |  |  |  |  |  |  | 
1200 | CCn1c(=O)c2c(nc(/C=C/c3ccc(OC)c(OC)c3)n2C)n(CC)c1=O [Istradefylline, reference compound] | 23.04 ± 4.88 | 30.38 ± 5.84 | 24.67 ± 5.21 | 35.75 ± 8.73 | 23.71 ± 6.50 | 40.75 ± 13.17 | 34.08 ± 6.69 | 54.75 ± 15.58 | 
